# Patent publication US8357687B2, “Macrocyclic indole derivatives useful as hepatitis C virus inhibitors” (priority 2008, dated 2013)
# What was measured:
# [1] = tested on: NS5B chimeric replicon of clinical isolate 1a_H77 in Huh7-cure cells; test: Transient replicon assay, chimeric replicon of clinical isolate 1a_H77 (CI1); format: cell-based, HCV genotype 1a; conditions: Hepatitis C virus, 48 h, read-out: EC50-T CI1
# [2] = Pharmacokinetic analysis after single oral administration; format: in vivo; conditions: male Sprague-Dawley rats, single oral dose 10 mg/kg, 7 h post dosing; for Kp at 7 h: rat, liver/plasma, read-out: Lever/plasma ratio
# Protocol: Three male Sprague-Dawley rats were given a single oral dose of 10 mg/kg of the studied compounds. The compounds were administered by gavage as a solution in PEG400/2% Vitamine E Tocopherol polyethyleneglycol succinate (Vitamin E-TPGS). 7 hours after administration, the animals were sacrificed and plasma and liver samples taken. The samples were analyzed using a qualified research LC-MS/MS method to determine the concentration of the compound in the liver and the liver-to-plasma ratio at 7 h post dosing.
# [3] = biological target: T1, HCV NS5B polymerase (NS5BΔC21) (Hepatitis C virus genotype 1b, UniProt Q9WMX2); test: RNA-dependent RNA polymerase assay (enzyme inhibition assay); format: biochemical, HCV (genotype 1b consensus strain Con1)
# T1 construct: NS5B (genotype 1b consensus strain Con1) lacking 21 C-terminal residues; made in house; host or cells: E. coli Rosetta 2 (DE3)
# Source text: The coding sequence for NS5B (genotype 1b consensus strain Con1) lacking 21 C-terminal residues was amplified from plasmid pFKI389/ns3-3′ (Genbank accession no. AJ242654), plasmid pCV-H77C (Genbank accession no. AF 011751.1) and subcloned into the pET21b plasmid as described previously (Pauwels et al. J. Virol., 2007). The NS5BΔC21 expression constructs were transformed into E. coli Rosetta 2 (DE3) (Novagen, Madison, Wis.). One hundred milliliters of LB-medium supplemented with carbenicillin (50 μg/mL) and chloramphenicol (34 μg/mL) was inoculated with one colony, grown overnight, and transferred to fresh LB-medium supplemented with 3% ethanol, carbenicillin and chloramphenicol, at a ratio of 1:200. Cells were grown to an optical density at 600 nm of 0.6, after which the expression cultures were shifted to a growth temperature of 20° C. following induction with ispopropyl-1-thio-β-D-galactopyranoside and MgCl2 at a final concentration of 0.4 mM and 10 μM, respectively. After 18 h of induction, cells were harvested by centrifugation and resuspended in 20 mM Tris-HCl, pH 7.5, 300 mM NaCl, 10% glycerol, 0.1% NP40, 4 mM MgCl2, 5 mM DTT supplemented with EDTA-free Complete Protease Inhibitor (Roche, Basel, Switzerland). Cell suspensions were disrupted by sonication and incubated with 10-15 mg/L of DNase I (Roche, Basel, Switzerland) for 30 min. Cell debris was removed through ultracentrifugation at 30,000×g for 1 hour and clarified cell lysate was flash frozen and stored at −80° C. prior to purification.
# Clarified cell lysate was thawed and subsequently loaded onto a 5 mL pre-packed HisTrap FF column equilibrated with 25 mM HEPES, pH 7.5, 500 mM NaCl, 10% glycerol and 5 mM DTT. Proteins were eluted with 500 mM imidazole at a flow rate of 1 mL/min. Fractions containing the protein of interest were applied onto a pre-packed 26/10 HiPrep Desalting Column equilibrated with 25 mM HEPES, pH 7.5, 250 mM NaCl, 10% glycerol and 5 mM DTT. The buffer-exchanged NS5B peak was then applied onto a 6 ml Resource S column. Protein was eluted with an increasing salt gradient and fractions collected. Protein purity was assessed on Nu-PAGE pre-cast gels (Invitrogen, Carlsbad, Calif.). Purified NS5B samples were concentrated using Centri-Prep concentrators (Millipore, Billerica, Mass., USA) and protein concentrations were determined by spectrofotometry with the Nanodrop (Nanodrop Technologies, Wilmington, Del., USA).
# Measurement of HCV NS5B polymerization activity was performed by evaluating the amount of radio labeled GTP incorporated by the enzyme in a newly synthesized RNA using […] RNA template/primer. The RdRp assay was carried out in 384-well plates. 2.5 nM of purified NS5B enzyme was pre-incubated for 10 min with 150 nM 5′-biotinylated oligo(rG13) primer, 15 nM poly(rC) template, in 18 mM Tris-HCl, pH 7.5, 5 mM MgCl2, 20.5 mM KCl, 17 mM NaCl and 2.5 mM of DTT. The test compounds were the added to the preformed polymerase-template complex, and incubated at room temperature for 15 min before the addition 600 nM of GTP, and 0.13 μCi of [^3H]GTP. 30 μL reaction mixture was incubated at room temperature for 2 h before stopping the reaction by adding 30 μL of streptavidin coated SPA-beads (GE Healthcare, Uppsala, Sweden) in 0.5 M EDTA. […] IC50 values represent the concentration of compound required to decrease by 50% the amount of RNA produced which is measured by the detection of incorporated radiolabeled GTP.
# [4] = tested on: NS5B chimeric replicon of clinical isolate 1a—6 in Huh7-cure cells; test: Transient replicon assay, chimeric replicon of clinical isolate 1a—6 (CI2); format: cell-based, HCV genotype 1a; conditions: Hepatitis C virus, 48 h, read-out: EC50-T CI2
# [5] = tested on: wild type replicon of genotype 1b (con1b) in Huh7-cure cells; test: Transient replicon assay, wild type replicon of genotype 1b (Con1b); format: cell-based, HCV genotype 1b; conditions: Hepatitis C virus, transient wild type replicon genotype 1b, 48 h, luciferase, read-out: EC50-T Con1b
# [6] = biological target: T2, NS5B wild-type enzyme genotype 4a (UniProt O39929); test: Enzyme binding assay (SPR, Biacore), genotype 4a; set-up: species or system HCV genotype 4a
# T2 construct: fused on or other part: His6 tag
# Protocol: (§1) The compounds of formula (I) were examined for their enzymatic binding kinetics or affinity using a Surface Plasmon Resonance (SPR)-based method, i.e. Biacore. A slow dissociation of the inhibiting compound from its viral target (low koff, low Kd) is believed to potentially reduce the development of drug resistance against anti-viral drugs (Dierynck et al. 2007. Journal of Virology, vol. 81, No. 24, 13845-13851). All measurements were performed on a Biacore T100 instrument (GE Healthcare). The purified HIS6-tagged NS5BΔC21 polymerases were immobilized using non-covalent capturing to an NTA sensor chip (GE Healthcare) in immobilization buffer (20 mM MOPS pH 7.4, 500 mM NaCl, 0.005% Tween-P20, 1 mM DTT, 50 μM EDTA). Interaction studies were all performed at 25° C. Inhibitors were serially diluted in running buffer (20 mM Tris-HCl pH 7.4, 150 mM NaCl, 50 μM EDTA, 1 mM DTT, 0.005% Tween-P20) containing 5% dimethyl sulfoxide (DMSO). Single-cycle kinetics were used, in which 5 increasing concentrations of compound were injected for a period of 300 s each in 1 single cycle, and dissociation was monitored for a period of 1200 s. The sensor surface was completely regenerated in between the cycles. Data were analyzed using simultaneous nonlinear regression analysis (global fitting) adapted for single-cycle kinetics with Biacore T100 BiaEval evaluation software 2.0 (GE Healthcare). The individual rate constants kon and koff and a derived affinity constant, Kd=koff/kon, were determined by a kinetic evaluation of the sensorgrams. The kinetic models accounted for bulk and limited mass transport effects. Every analysis was performed at least in two independent experiments. The dissociation rate of a kinetic interaction can be translated into a compound residence time (dissociative half-life t1/2=ln(2)/koff) representative for the interaction time between the polymerase and its inhibitor.
# (§2) The observed association rate constants (kon), dissociation rate constants (koff), derived affinity constant (Kd) and dissociative half-life (t1/2) measured for compounds of formula (I) or subgroups thereof on NS5B wild-type enzyme genotypes 1a, 1b and 4a are given in Table 2.
# [7] = biological target: T3, NS5B wild-type enzyme genotype 1b (Hepatitis C virus genotype 1b, UniProt Q9WMX2); test: Enzyme binding assay (SPR, Biacore), genotype 1b
# T3 construct: NS5B (genotype 1b consensus strain Con1) lacking 21 C-terminal residues; made in house; host or cells: E. coli Rosetta 2 (DE3)
# Protocol: as §1, §2
# [8] = biological target: T4, NS5B wild-type enzyme genotype 1a (Hepatitis C virus genotype 1a, UniProt P27958); test: Enzyme binding assay (SPR, Biacore), genotype 1a; set-up: species or system HCV genotype 1a
# T4 construct: The purified HIS6-tagged NS5BΔC21 polymerases were immobilized; made in house; host or cells: E. coli Rosetta 2 (DE3)
# T4 sequence (P27958 2421-2990): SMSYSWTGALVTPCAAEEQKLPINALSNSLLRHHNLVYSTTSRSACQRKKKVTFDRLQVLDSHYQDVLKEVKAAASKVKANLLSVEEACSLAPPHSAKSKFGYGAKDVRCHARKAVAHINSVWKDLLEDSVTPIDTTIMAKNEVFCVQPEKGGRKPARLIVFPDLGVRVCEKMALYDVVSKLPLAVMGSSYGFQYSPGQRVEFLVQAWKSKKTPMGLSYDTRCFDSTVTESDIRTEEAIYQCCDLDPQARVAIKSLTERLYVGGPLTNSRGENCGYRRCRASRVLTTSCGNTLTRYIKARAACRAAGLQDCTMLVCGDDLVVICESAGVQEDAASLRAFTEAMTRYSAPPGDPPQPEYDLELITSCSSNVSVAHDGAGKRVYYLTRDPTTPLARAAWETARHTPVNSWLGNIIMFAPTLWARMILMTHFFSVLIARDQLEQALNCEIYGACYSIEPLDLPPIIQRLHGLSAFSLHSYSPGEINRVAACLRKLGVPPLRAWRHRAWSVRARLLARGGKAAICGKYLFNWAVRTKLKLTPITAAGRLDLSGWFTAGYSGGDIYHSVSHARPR
# Protocol: as §1, §2
Compound,EC50 [1] [nM],Concentration Liver [2] [ng/g],Kp at 7 h [2],IC50 [3] [nM],EC50 [4] [nM],EC50 [5] [nM],Kd ([6]; Kd=koff/kon) [nM],"koff ([6]; SPR, 25° C.) [s⁻¹]","kon ([6]; SPR, 25° C.)",t1/2 (dissociative half-life) ([6]; t1/2=ln(2)/koff) [min],Kd [7] [nM],"koff ([7]; genotype 1b, SPR, 25° C.) [s⁻¹]","kon ([7]; genotype 1b, SPR, 25° C.)","t1/2 (dissociative half-life) ([7]; genotype 1b, t1/2=ln(2)/koff) [min]",Kd [8] [nM],koff [8] [s⁻¹],"kon ([8]; genotype 1a, SPR, 25° C.)","t1/2 (dissociative half-life) ([8]; genotype 1a, t1/2=ln(2)/koff) [min]"
"CN1CCOCCN(C)S(=O)(=O)NC(=O)c2ccc3c(C4CCCCC4)c(n(C)c3c2)-c2ccccc2OCC1=O [Compound 10, 25-cyclohexyl-4,10,19-trimethyl-5,6,9,10-tetrahydro-2H,8H-14,18:17,20-di(metheno)-1,7,11,4,10,12,19-benzodioxathiatetraazacyclodocosine-3,13 (4H,12H,19H)-dione 11,11-dioxide]",121,1717,64,161,88,75,–,–,–,–,–,–,–,–,–,–,–,–
"CN1CCCCN(C)S(=O)(=O)NC(=O)c2ccc3c(C4CCCCC4)c(n(C)c3c2)-c2ccccc2OCC1=O [Compound 15, 24-cyclohexyl-4,9,18-trimethyl-4,5,6,7,8,9-hexahydro-13,17:16,19-di(metheno)-1,10,4,9,11,18-benzoxathiatetraazacyclohenicosine-3,12(2H,11H,18H)-dione 10,10-dioxide]",102,1524,99,124,99,169,–,–,–,–,–,–,–,–,–,–,–,–
"CN1CCCCCNC(=O)COc2cc(F)ccc2-c2c(C3CCCCC3)c3ccc(cc3n2C)C(=O)NS1(=O)=O [Compound 50, 25-cyclohexyl-23-fluoro-10,19-dimethyl-5,6,7,8,9,10-hexahydro-2H-14,18:17,20-di(metheno)-1,11,4,10,12,19-benzoxathiatetraazacyclodocosine-3,13(4H,12H,19H)-dione 11,11-dioxide]",117,–,–,109,156,254,9.1,0.002,2.2E+05 1/MS,5.72,25,0.0006,2.3E+04 1/MS,19.38,40,0.0067,1.7E+05 1/MS,1.72
